BindingDB's records for doi:10.1021/jm500569h (Georgetown University, 2014)

assay: Antagonist activity at ER in human MCF7:WS8 cells assessed as inhibition of estradiol-induced cell growth by measuring DNA level after 7 days by fluorescence analysis

IC50 [nM]	Structure (SMILES)
3	CCOc1ccc2c(c1)CCCC(c1ccccc1)=C2c1ccc(OCCN(C)C)cc1
3	CNCCOc1ccc(C2=C(c3ccccc3)CCCc3cc(O)ccc32)cc1

assay: Agonist activity at ER in human MCF7:WS8 cells assessed as increase in cell growth by measuring DNA level after 7 days by fluorescence analysis

Structure (SMILES)	EC50 [nM]
CCC(=C(c1ccc(O)cc1)c1ccc(O)cc1)c1ccccc1 [1,1-bis(4,4'-hydroxyphenyl)-2-phenylbut-1-ene]	0.015
CCC(=C(c1ccc(O)cc1)c1ccc(O)cc1)c1ccc(O)cc1	0.15
CCOc1ccc2c(c1)CCCC(c1ccccc1)=C2c1ccc(O)cc1	2.7
CN(C)CCOc1ccc2c(c1)CCCC(c1ccccc1)=C2c1ccc(O)cc1	15

Further lines, results first:

EC50 [nM]	Structure (SMILES)
0.3	CCOc1ccc(C2=C(c3ccccc3)CCCc3cc(O)ccc32)cc1
20	CNCCOc1ccc2c(c1)CCCC(c1ccccc1)=C2c1ccc(O)cc1
4	COc1ccc2c(c1)CCCC(c1ccccc1)=C2c1ccc(O)cc1
0.3	COc1ccc(C2=C(c3ccccc3)CCCc3cc(O)ccc32)cc1
